Here are results for ten compounds from patent US20260042764A1, “COMPOSITIONS AND METHODS FOR INHIBITION OF KRAS” (TheRas, Inc., priority 2022, published 2026).

Test [1] has as its target T1, Avi-KRAS G12R (1-169) GppNHp/RAF1 RBD-3xFLAG (52-151) (Homo sapiens, UniProt P01116, G12R).
T1 construct: Avi-KRAS G12R (1-169)
Briefly: Raf1-KRAS G12R-GppNHP disruption HTRF assay (Biological Example 1). In kind it is binding. Conditions: KRAS G12R, GppNHp-loaded; Table 11. On the procedure:
(§1) A protein:protein interaction (PPI) Homogeneous Time Resolved Fluorescence (HTRF) assay was used to determine the effectiveness of compounds of the present disclosure in disrupting KRAS protein and effector RAF1 binding.
(§2) The assay buffer included: 50 mM Tris pH 7.5, 100 mM NaCl, 5 mM MgCl2, 0.1% BSA, 0.01% Tween, and 10% DMSO. The bead buffer included: 50 mM Tris pH 7.5, and 0.01% Tween 20. Assay volume of 20 μL was used in a 384 well plate-low volume format.
(§3) The HTRF assay employed the following protocol:
(§4) Protein mix was prepared in assay buffer, and dispensed on plates, 10 μL per well, then incubated for 1 h at room temperature, with 700 rpm shaking, Reagents mix was prepared and dispensed on plates, 10 μL per well, then incubated for 1 h at room temperature, with 700 rpm shaking.
(§5) Data was reported as percentage of activity, with DMSO as 100%. Data was plotted and analyzed using Prism 8.
For orientation: TR-FRET usually uses a lanthanide donor and a delayed reading to cut background.

Test [2] has as its target T2, Avi-KRAS G12D (1-169) GppNHp/RAF1 RBD-3xFLAG (52-151) (Homo sapiens, UniProt P01116, G12D).
T2 construct: Avi-KRAS G12D (1-169)
Briefly: Raf1-KRAS G12D-GppNHP disruption HTRF assay (Biological Example 1). It is filed as binding. The conditions noted are these: KRAS G12D, GppNHp-loaded; Table 11. As for the experimental part:
as §1, §2, §3, §4, §5

The target in test [3] is T3, Avi-KRAS WT (1-169) GppNHp/RAF1 RBD-3xFLAG (52-151) (Homo sapiens, UniProt P01116).
T3 construct: Avi-KRAS WT (1-169)
T3 sequence (P01116 1-169 isoform P01116-2): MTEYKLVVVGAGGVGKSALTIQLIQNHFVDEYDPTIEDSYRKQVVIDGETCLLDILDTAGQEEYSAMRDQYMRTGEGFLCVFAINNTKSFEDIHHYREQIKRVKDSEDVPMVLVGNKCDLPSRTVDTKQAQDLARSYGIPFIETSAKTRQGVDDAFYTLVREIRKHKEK
Nature of the test: Raf1-KRAS WT-GppNHP disruption HTRF assay (Biological Example 1). The conditions noted are these: KRAS WT, GppNHp-loaded; Table 11. It is filed as binding. On the procedure: as §1, §2, §3, §4, §5

Test [4] concerns GP2d cells (KRAS G12D). Briefly: Cell-based pERK HTRF assay in GP2d cell (Biological Example 2). Conditions: GP2d (KRAS G12D) cells, pERK HTRF. On the procedure: A pERK assay (Perkin Elmer) was used to determine the effectiveness of compounds in disrupting KRAS G12D protein/effector signaling in cells.
On Day 1, cells (GP2d) were seeded into 96-well plates at 3×10^4 cells/well in 80 μL complete growth media (DMEM, 10% FBS).
On Day 2, cells were treated with compounds at 0.25% DMSO. The source plate was created with compounds diluted in media at 5-fold the final assay concentration. The compounds were run in a 9-point concentration curve starting at 1 μM or in a 9-point concentration curve starting at 100 nM, with a half-log dilution between concentrations. Twenty μL was transferred onto the cell plates (final volume in wells was 100 μL). Plates were harvested after 60 min incubation by aspirating media and adding kit-supplied 1x supplemented lysis buffer to all wells (50 μL per well). Plates were then placed on a plate shaker and incubated at 850 rpm for an additional 30 min.
Antibody mixture solution was prepared by diluting aliquoted d2 and Eu Cryptate antibodies 1:20 in kit supplied detection buffer, and mixing the diluted antibodies solutions (1:1 v:v).
Samples were homogenized by pipetting up and down and then transferred (16 μL of cell lysates) from the 96-well cell culture plate to two wells of the HTRF 384-well detection plate containing the antibody solution. Plates were centrifuged (524 g for 1 min) and allowed to incubate between 4 and 24 h at room temperature. Maximum signal is reached after 4 h incubation time and remains stable over a period of 24 hours. Therefore, readings can be made between 4 and 24 h of incubation. Plates were centrifuged again (524 g for Imin), then analyzed on the EnVision plate reader using the following settings: Excitation 320 nm, Bandwidth 75 nm; Emission 615 nm, Bandwidth 85 nm; Gain 100%; Flashes 100; Lag 60 μs.

The target in test [5] is T4, Avi-KRAS G12V (1-169) GppNHp/RAF1 RBD-3xFLAG (52-151) (Homo sapiens, UniProt P01116, G12V).
T4 construct: Avi-KRAS G12V (1-169)
T4 sequence (P01116 1-169 isoform P01116-2 G12V): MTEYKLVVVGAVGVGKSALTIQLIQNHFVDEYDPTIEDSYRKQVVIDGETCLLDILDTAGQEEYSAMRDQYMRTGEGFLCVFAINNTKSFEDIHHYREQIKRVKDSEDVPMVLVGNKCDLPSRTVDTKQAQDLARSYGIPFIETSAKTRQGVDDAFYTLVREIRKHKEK
Briefly: Raf1-KRAS G12V-GppNHP disruption HTRF assay (Biological Example 1). In kind it is binding. The conditions noted are these: KRAS G12V, GppNHp-loaded; Table 11. On the procedure: as §1, §2, §3, §4, §5

T2 sequence (P01116 1-169 isoform P01116-2 G12D): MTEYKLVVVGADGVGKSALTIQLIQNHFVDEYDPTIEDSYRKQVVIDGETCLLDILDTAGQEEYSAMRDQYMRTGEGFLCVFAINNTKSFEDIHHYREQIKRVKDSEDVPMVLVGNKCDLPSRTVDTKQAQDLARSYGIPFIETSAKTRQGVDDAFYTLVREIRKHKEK
T1 sequence (P01116 1-169 isoform P01116-2 G12R): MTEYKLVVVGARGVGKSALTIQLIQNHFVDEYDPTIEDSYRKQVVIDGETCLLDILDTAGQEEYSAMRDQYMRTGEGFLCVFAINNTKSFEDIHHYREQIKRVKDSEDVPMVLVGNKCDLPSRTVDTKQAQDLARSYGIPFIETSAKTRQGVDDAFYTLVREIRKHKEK

For the compound `CCC(=O)N1C[C@H](C)N(c2nc(OC[C@@]34CCCN3C[C@H](F)C4)nc3c(F)c(-c4ccc(F)c5sc(N)c(C#N)c45)c(C(F)(F)F)cc23)C[C@H]1C` (atropisomer, axis not shown) [Compound 99], the IC50 is 1 to 10 µM in test [1]; 1 to 10 µM in test [2]; 1 to 10 µM in test [3]; less than 0.1 µM in test [4] (GP2d); more than 10 µM in test [5].

With `CN(c1nc(OC[C@@]23CCCN2C[C@H](F)C3)nc2c(F)c(-c3ccc(F)c4sc(N)c(C#N)c34)c(C(F)(F)F)cc12)[C@@H]1CCN(C(=O)CC#N)C1` (atropisomer, axis not shown) [Compound 103], the IC50 is 0.1 to 1 µM in test [1]; 0.1 to 1 µM in test [2]; 0.1 to 1 µM in test [3]; less than 0.1 µM in test [4] (GP2d); 0.1 to 1 µM in test [5].

`CN(c1nc(OC[C@@]23CCCN2C[C@H](F)C3)nc2c(F)c(-c3ccc(F)c4sc(N)c(C#N)c34)c(C(F)(F)F)cc12)[C@H]1C[C@@H](O)C1` (single isomer, unassigned) [Compound 20]: the IC50 in test [1] fell in the range of 1 to 10 µM; in test [2], 1 to 10 µM; in test [3], 1 to 10 µM; in test [4] (GP2d), 0.1 to 1 µM; in test [5], 1 to 10 µM.

Take `CCN(C)c1nc(OC[C@@]23CCCN2C[C@H](F)C3)nc2c(F)c(-c3ccc(F)c4sc(N)c(C#N)c34)c(C(F)(F)F)cc12` (single isomer, unassigned) [Compound 197]: the IC50 in test [1] was more than 10 µM; in test [2], more than 10 µM; in test [3], more than 10 µM; in test [4], more than 1 µM; in test [5], more than 10 µM.

Turning to `CN(c1nc(OC[C@@]23CCCN2C[C@H](F)C3)nc2c(F)c(-c3ccc(F)c4sc(N)c(C#N)c34)c(C(F)(F)F)cc12)[C@H]1C[C@@H](O)C1` [Compound 18, 2-amino-7-fluoro-4-(8-fluoro-2-(((2R,7aS)-2-fluorotetrahydro-1H-pyrrolizin-7a(5H)-yl)methoxy)-4-(((1s,3R)-3-hydroxycyclobutyl)(methyl)amino)-6-(trifluoromethyl)quinazolin-7-yl)benzo[b]thiophene-3-carbonitrile], the concentration for half-maximal inhibition (IC50) is 0.1 to 1 µM in test [1]; less than 0.1 µM in test [2]; less than 0.1 µM in test [3]; less than 0.1 µM in test [4] (GP2d); 0.1 to 1 µM in test [5].

Take `CN(c1nc(OC[C@@]23CCCN2C[C@H](F)C3)nc2c(F)c(-c3ccc(F)c4sc(N)c(C#N)c34)c(C(F)(F)F)cc12)C1CCC1` [Compound 22]: the IC50 in test [1] was 0.1 to 1 µM; in test [2], 0.1 to 1 µM; in test [3] it was 0.1 to 1 µM; in test [4] (GP2d) it was less than 0.1 µM; in test [5], 0.1 to 1 µM.

With `CN(c1nc(OC[C@@]23CCCN2C[C@H](F)C3)nc2c(F)c(-c3ccc(F)c4sc(N)c(C#N)c34)c(C(F)(F)F)cc12)[C@H]1C[C@H](O)C1` [Compound 23], the 50% inhibitory concentration (IC50) in test [1] was 0.1 to 1 µM; in test [2], 0.1 to 1 µM; in test [3] it was 0.1 to 1 µM; in test [4] (GP2d), less than 0.1 µM; in test [5], 0.1 to 1 µM.

Take `CN(c1nc(OC[C@@]23CCCN2C[C@H](F)C3)nc2c(F)c(-c3ccc(F)c4sc(N)c(C#N)c34)c(Cl)cc12)[C@H]1C[C@@H](O)C1` [Compound 24]: the IC50 in test [1] was 0.1 to 1 µM; in test [2], 0.1 to 1 µM; in test [3], 0.1 to 1 µM; in test [4] (GP2d) it was less than 0.1 µM; in test [5], 0.1 to 1 µM.

Consider `Nc1nc2c(-c3c(C(F)(F)F)cc4c(N[C@H]5CC[C@@H](O)CC5)nc(OCC56CCCN5CCC6)nc4c3F)ccc(F)c2s1` [Compound 64], for which the IC50 in test [1], in test [2], in test [3] and in test [5] was 1 to 10 µM throughout.

Consider `Nc1nc2c(-c3c(C(F)(F)F)cc4c(NC[C@@H]5CC[C@H](CO)C5)nc(OCC56CCCN5CCC6)nc4c3F)ccc(F)c2s1` [Compound 68], for which the IC50 in test [1] is more than 10 µM; in test [2], more than 10 µM; in test [3], more than 10 µM; in test [5], 1 to 10 µM.

Broadly, the IC50 is the concentration that inhibits the measured activity by half.
